Source: patent publication US9688722B2, “Substrates and inhibitors of prolyl oligopeptidase and methods of use” (The Board of Regents of the University of Oklahoma, priority 2012, dated 2017)
Values joined by “and” are separate entries in the source; they are usually repeats but may differ in a detail not shown here. Equal values may be shown once.

Assays:
[1] = test system: HCT116 human colon cancer xenografts; assay: HCT116 human colon cancer xenografts in immunodeficient mice; format: in vivo; details: 28-day treatment period
DPPIV = DPPIV (Homo sapiens, UniProt P27487); assay: DPPIV inhibition constants (Ki) with Tic-Pro-AFC substrate; format: biochemical
Sequence of DPPIV (P27487 whole entry, species assumed): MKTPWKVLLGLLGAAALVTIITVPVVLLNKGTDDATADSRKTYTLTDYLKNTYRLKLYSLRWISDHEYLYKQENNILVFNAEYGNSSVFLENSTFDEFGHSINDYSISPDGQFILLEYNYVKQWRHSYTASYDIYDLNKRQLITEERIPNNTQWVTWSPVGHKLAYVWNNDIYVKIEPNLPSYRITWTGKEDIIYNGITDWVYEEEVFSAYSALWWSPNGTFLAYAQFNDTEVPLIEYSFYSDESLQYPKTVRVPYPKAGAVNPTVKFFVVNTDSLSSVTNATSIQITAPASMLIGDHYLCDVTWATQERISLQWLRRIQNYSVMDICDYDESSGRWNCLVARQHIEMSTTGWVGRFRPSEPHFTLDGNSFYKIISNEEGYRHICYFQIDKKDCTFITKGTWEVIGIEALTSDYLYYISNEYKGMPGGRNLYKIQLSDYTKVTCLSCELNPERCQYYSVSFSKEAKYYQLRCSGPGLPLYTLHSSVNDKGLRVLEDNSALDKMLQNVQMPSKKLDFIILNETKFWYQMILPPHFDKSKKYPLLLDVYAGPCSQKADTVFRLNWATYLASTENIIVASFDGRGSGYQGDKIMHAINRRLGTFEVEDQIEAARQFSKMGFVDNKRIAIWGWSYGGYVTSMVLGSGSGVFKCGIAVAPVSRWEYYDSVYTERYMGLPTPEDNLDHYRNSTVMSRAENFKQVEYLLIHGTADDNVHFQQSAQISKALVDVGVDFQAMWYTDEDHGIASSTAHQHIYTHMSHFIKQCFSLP
Protocol: (§1) For accurate assessment of kinetic parameters, saturating concentrations of substrate were used. For standard curves, dilutions of AFC (7-amino-4-trifluoromethylcoumarin) were prepared in the same assay buffer and corresponding fluorescence was measured.

POP = molecular target: T1, POP (Homo sapiens, UniProt P48147); assay: POP inhibition constants (Ki) with Tic-Pro-AFC substrate; format: biochemical
T1 sequence (P48147 1-710): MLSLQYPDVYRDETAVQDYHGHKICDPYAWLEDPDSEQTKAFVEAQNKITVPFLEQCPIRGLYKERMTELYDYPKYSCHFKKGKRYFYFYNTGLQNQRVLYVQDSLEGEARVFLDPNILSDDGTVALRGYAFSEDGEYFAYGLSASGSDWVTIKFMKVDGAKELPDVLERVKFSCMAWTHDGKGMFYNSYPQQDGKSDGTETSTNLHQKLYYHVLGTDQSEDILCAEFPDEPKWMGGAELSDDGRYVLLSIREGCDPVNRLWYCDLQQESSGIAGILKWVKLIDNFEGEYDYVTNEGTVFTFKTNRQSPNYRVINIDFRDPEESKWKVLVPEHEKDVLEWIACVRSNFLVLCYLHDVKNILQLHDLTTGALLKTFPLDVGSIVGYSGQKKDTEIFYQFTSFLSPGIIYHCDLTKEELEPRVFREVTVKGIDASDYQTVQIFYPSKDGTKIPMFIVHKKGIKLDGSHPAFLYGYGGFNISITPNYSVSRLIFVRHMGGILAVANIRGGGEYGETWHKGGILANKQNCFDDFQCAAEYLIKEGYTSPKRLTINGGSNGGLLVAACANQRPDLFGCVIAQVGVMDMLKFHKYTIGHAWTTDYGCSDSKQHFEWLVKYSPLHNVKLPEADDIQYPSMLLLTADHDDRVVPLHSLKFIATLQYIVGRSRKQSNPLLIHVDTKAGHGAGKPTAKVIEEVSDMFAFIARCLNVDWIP
Protocol: as §1

Aqueous solubility = format: physicochemical; details: result in words
Protocol: The specific POP inhibitor, J94 (acetyl-Lys-Leu-Arg-(L)boroPro (Ki<100 nM)); and the substrate, C95 (acetyl-Arg-AEEA-Gly-Pro-AMC), were designed, synthesized and characterized by us as previously reported. […] The inhibitors (J94 and M83) were dissolved in Hanks Balanced Salt Solution (HBSS; Gibco) at 1 mM and stored at −20° C. The substrate (C95) was dissolved in HBSS at 2.5 mM and stored at 4° C. […] Tic-Pro-AFC, a prolyl-specific fluorescent substrate, was supplied by Vantia (Southampton, England).

CC(=O)N[C@@H](CCCNC(=N)N)C(=O)NCCOCCOCC(=O)N[C@H](C)C(=O)N1CCC[C@H]1B(O)O [Compound M83, acetyl-Arg-AEEA-(D)Ala-(L)boroPro]
effectiveness on cancer growth relative to J94 [1]: slightly more effective than this | Selectivity Ki (DPPIV) / Ki (APCE-FAP) (DPPIV; ratio of Ki values): 1076 | inhibition of DPPIV (DPPIV; result in words): nor was it inhibited | Ki (DPPIV; substrate Tic-Pro-AFC): 6.13 µM and 6.14 µM | Selectivity Ki (POP) / Ki (APCE/FAP) (POP; ratio of Ki values): 1.3 | Ki (POP; substrate Tic-Pro-AFC): 0.0074 µM | solubility in aqueous buffers (Aqueous solubility): soluble in aqueous buffers
